Source: patent publication US9023986B2, “Glucose-dependent insulinotropic peptide analogs” (Hoffmann-La Roche Inc., priority 2010, dated 2015)
pEC50: −log10 of the molar value.

Target: T1, human GIPR (Homo sapiens, UniProt P48546)
T1 construct: host or cells: CHO-K1
T1 sequence (P48546 22-466): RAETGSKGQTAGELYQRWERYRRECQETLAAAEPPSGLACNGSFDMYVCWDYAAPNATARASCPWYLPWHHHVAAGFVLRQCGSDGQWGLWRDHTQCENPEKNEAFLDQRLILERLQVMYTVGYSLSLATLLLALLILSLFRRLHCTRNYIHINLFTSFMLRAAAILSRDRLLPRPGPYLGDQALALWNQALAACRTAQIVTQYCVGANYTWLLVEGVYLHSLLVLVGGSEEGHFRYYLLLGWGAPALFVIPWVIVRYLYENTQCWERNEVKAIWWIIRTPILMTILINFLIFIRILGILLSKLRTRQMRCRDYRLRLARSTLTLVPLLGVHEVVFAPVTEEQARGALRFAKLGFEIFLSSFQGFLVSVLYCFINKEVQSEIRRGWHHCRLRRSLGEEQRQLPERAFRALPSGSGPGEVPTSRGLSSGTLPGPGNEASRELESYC
Assay: cAMP production in CHO-K1 cells expressing human GIPR (LANCE cAMP assay)
Assay type: cell-based
Settings: for Emax: CHO-K1, read-out: % activation of cAMP (maximal stimulation)
Experimental: CHO—K1 cells expressing human GIPR were obtained from DiscoverX Corporation (Fremont, Calif.). The cells were cultured in Ham's F-12 nutrient media supplemented with 10% foetal bovine serum, 800 μg/ml geneticin, 300 μg/ml hydromycin, 2 mM L-glutamine, and Penicillin-streptomycin (100 units, 100 μg) at 37° C. in a 5% CO2 incubator. The cells were harvested at 90% confluence.
The cells were suspended in Ham's F-12 nutrient media to a concentration of 200,000 cells/ml. The cells were then plated in a 384 well plate at with […] of the suspension added per well. The cells were incubated overnight at 37° C. in a 5% CO2 incubator.
The activity of the compounds was determined by stimulating the CHO—K1 cells with the test compound, and measuring the levels of cAMP produced. The activity of the compounds was compared to the activity of native GIP, as GIP stimulates cAMP production. 6 μl of the test compound in stimulation buffer (990 ml Hank's Balanced Salt solution (HBSS) (1×) (Invitrogen Corp #14025-092), 10 ml Hepes buffer solution (1 mol·L) (Invitrogen Corp 15630-080), 1 g BSA (final 0.1%), and 1 ml IBMX 250 mM stock prepared fresh in DMSO (Sigma-Aldrich 15879)) were added to cells, followed by 6 μl of Alexa Fluor® 647-anti cAMP antibody (Perkin Elmer) in stimulation buffer. […] The well plate was centrifuged for 3 min at 300 rpm, and incubated at room temperature for 45 minutes. 12 μl of detection mixture (biotin cAMP and EUW8044 labeled streptavidin (Eu-SA) in cAMP Detection Buffer (Perkin Elmer)) was added and incubated for 60 min at room temperature.
The levels of cAMP produced were measured according to the detailed protocol outlined in the Perkin Elmer LANCE cAMP Assay Perkin Elmer Lance cAMP Kit manual. The activity of the compounds was compared to the activity of native GIP.
The plates are read on a TRF detection instrument, EnVision® (Perkin Elmer) (excitation at 340 nm and emission at 665 nm). The values of the cAMP signal are obtained from the standard cAMP curve and used to determine the amount of maximal stimulation, and EC50 for stimulating the cAMP signal.

Compound | pEC50 | Emax | % activation of cAMP (maximal stimulation) (CHO-K1 cells expressing human GIPR, compared to native GIP)
CC[C@H](C)[C@H](NC(=O)[C@H](CO)NC(=O)[C@H](Cc1ccc(O)cc1)NC(=O)[C@H](CC(=O)O)NC(=O)[C@H](CO)NC(=O)[C@@H](NC(=O)[C@H](Cc1ccccc1)NC(=O)[C@@H](NC(=O)CNC(=O)[C@H](CCC(=O)O)NC(=O)[C@H](C)NC(=O)[C@@H](Cc1ccccc1F)NC(C)=O)[C@@H](C)O)[C@@H](C)CC)C(=O)N[C@@H](C)C(=O)N[C@@H](CCSC)C(=O)N[C@@H](CC(=O)O)C(=O)N[C@@H](CCCCN)C(=O)N[C@H](C(=O)N[C@@H](Cc1c[nH]cn1)C(=O)N[C@@H](CCC(N)=O)C(=O)N[C@@H](CCC(N)=O)C(=O)N[C@@H](CC(=O)O)C(=O)N[C@@H](Cc1ccccc1)C(=O)N[C@H](C(=O)N[C@@H](CC(N)=O)C(=O)N[C@@H](Cc1c[nH]c2ccccc12)C(=O)N[C@@H](CC(C)C)C(=O)N[C@@H](CC(C)C)C(=O)N[C@@H](C)C(=O)N[C@@H](CCC(N)=O)C(=O)N[C@@H](CCCCN)C(N)=O)C(C)C)[C@@H](C)CC [Example 15] | 11.12 | 99.8% | 
CC[C@H](C)[C@H](NC(=O)[C@H](CO)NC(=O)[C@H](Cc1ccc(O)cc1)NC(=O)[C@H](CC(=O)O)NC(=O)[C@H](CO)NC(=O)[C@@H](NC(=O)[C@H](Cc1ccccc1)NC(=O)[C@@H](NC(=O)CNC(=O)[C@H](CCC(=O)O)NC(=O)[C@H](C)NC(=O)[C@@H](Cc1cc(F)cc(F)c1)NC(C)=O)[C@@H](C)O)[C@@H](C)CC)C(=O)N[C@@H](C)C(=O)N[C@@H](CCSC)C(=O)N[C@@H](CC(=O)O)C(=O)N[C@@H](CCCCN)C(=O)N[C@H](C(=O)N[C@@H](Cc1c[nH]cn1)C(=O)N[C@@H](CCC(N)=O)C(=O)N[C@@H](CCC(N)=O)C(=O)N[C@@H](CC(=O)O)C(=O)N[C@@H](Cc1ccccc1)C(=O)N[C@H](C(=O)N[C@@H](CC(N)=O)C(=O)N[C@@H](Cc1c[nH]c2ccccc12)C(=O)N[C@@H](CC(C)C)C(=O)N[C@@H](CC(C)C)C(=O)N[C@@H](C)C(=O)N[C@@H](CCC(N)=O)C(=O)N[C@@H](CCCCN)C(N)=O)C(C)C)[C@@H](C)CC [Example 17] | 11.52 | 99.6% | 
CC[C@H](C)[C@H](NC(=O)[C@H](CO)NC(=O)[C@H](Cc1ccc(O)cc1)NC(=O)[C@H](CC(=O)O)NC(=O)[C@H](CO)NC(=O)[C@@H](NC(=O)[C@H](Cc1ccccc1)NC(=O)[C@@H](NC(=O)CNC(=O)[C@H](CCC(=O)O)NC(=O)[C@H](C)NC(=O)[C@@H](Cc1cc(F)c(F)c(F)c1)NC(C)=O)[C@@H](C)O)[C@@H](C)CC)C(=O)N[C@@H](C)C(=O)N[C@@H](CCSC)C(=O)N[C@@H](CC(=O)O)C(=O)N[C@@H](CCCCN)C(=O)N[C@H](C(=O)N[C@@H](Cc1c[nH]cn1)C(=O)N[C@@H](CCC(N)=O)C(=O)N[C@@H](CCC(N)=O)C(=O)N[C@@H](CC(=O)O)C(=O)N[C@@H](Cc1ccccc1)C(=O)N[C@H](C(=O)N[C@@H](CC(N)=O)C(=O)N[C@@H](Cc1c[nH]c2ccccc12)C(=O)N[C@@H](CC(C)C)C(=O)N[C@@H](CC(C)C)C(=O)N[C@@H](C)C(=O)N[C@@H](CCC(N)=O)C(=O)N[C@@H](CCCCN)C(N)=O)C(C)C)[C@@H](C)CC [Example 18] | 9.98 | 100% | 
CC[C@H](C)[C@H](NC(=O)[C@H](CO)NC(=O)[C@H](Cc1ccc(O)cc1)NC(=O)[C@H](CC(=O)O)NC(=O)[C@H](CO)NC(=O)[C@@H](NC(=O)[C@H](Cc1ccccc1)NC(=O)[C@@H](NC(=O)CNC(=O)[C@H](CCC(=O)O)NC(=O)[C@H](C)NC(=O)[C@@H](Cc1c[nH]c2ccccc12)NC(C)=O)[C@@H](C)O)[C@@H](C)CC)C(=O)N[C@@H](C)C(=O)N[C@@H](CCSC)C(=O)N[C@@H](CC(=O)O)C(=O)N[C@@H](CCCCN)C(=O)N[C@H](C(=O)N[C@@H](Cc1c[nH]cn1)C(=O)N[C@@H](CCC(N)=O)C(=O)N[C@@H](CCC(N)=O)C(=O)N[C@@H](CC(=O)O)C(=O)N[C@@H](Cc1ccccc1)C(=O)N[C@H](C(=O)N[C@@H](CC(N)=O)C(=O)N[C@@H](Cc1c[nH]c2ccccc12)C(=O)N[C@@H](CC(C)C)C(=O)N[C@@H](CC(C)C)C(=O)N[C@@H](C)C(=O)N[C@@H](CCC(N)=O)C(=O)N[C@@H](CCCCN)C(N)=O)C(C)C)[C@@H](C)CC [Example 10] | 10.00 | 102% | 
Ac-(D)Tyr-Ala-Glu-Gly-Thr-Phe-Ile-Ser-Asp-Tyr-Ser-Ile-Ala-Met-Asp-Lys-Ile-His-Gln-Gln-Asp-Phe-Val-Asn-Trp-Leu-Leu-Ala-Gln-Lys-NH2 [Example 6] |  |  | 102%
CC[C@H](C)[C@H](NC(=O)[C@H](CO)NC(=O)[C@H](Cc1ccc(O)cc1)NC(=O)[C@H](CC(=O)O)NC(=O)[C@H](CO)NC(=O)[C@@H](NC(=O)[C@H](Cc1ccccc1)NC(=O)[C@@H](NC(=O)CNC(=O)[C@H](CCC(=O)O)NC(=O)[C@H](C)NC(=O)[C@@H](Cc1cccc(F)c1)NC(C)=O)[C@@H](C)O)[C@@H](C)CC)C(=O)N[C@@H](C)C(=O)N[C@@H](CCSC)C(=O)N[C@@H](CC(=O)O)C(=O)N[C@@H](CCCCN)C(=O)N[C@H](C(=O)N[C@@H](Cc1c[nH]cn1)C(=O)N[C@@H](CCC(N)=O)C(=O)N[C@@H](CCC(N)=O)C(=O)N[C@@H](CC(=O)O)C(=O)N[C@@H](Cc1ccccc1)C(=O)N[C@H](C(=O)N[C@@H](CC(N)=O)C(=O)N[C@@H](Cc1c[nH]c2ccccc12)C(=O)N[C@@H](CC(C)C)C(=O)N[C@@H](CC(C)C)C(=O)N[C@@H](C)C(=O)N[C@@H](CCC(N)=O)C(=O)N[C@@H](CCCCN)C(N)=O)C(C)C)[C@@H](C)CC [Example 16] | 10.24 | 98% | 
CC[C@H](C)[C@H](NC(=O)[C@H](CO)NC(=O)[C@H](Cc1ccc(O)cc1)NC(=O)[C@H](CC(=O)O)NC(=O)[C@H](CO)NC(=O)[C@@H](NC(=O)[C@H](Cc1ccccc1)NC(=O)[C@@H](NC(=O)CNC(=O)[C@H](CCC(=O)O)NC(=O)[C@H](C)NC(=O)[C@@H](Cc1ccccc1Cl)NC(C)=O)[C@@H](C)O)[C@@H](C)CC)C(=O)N[C@@H](C)C(=O)N[C@@H](CCSC)C(=O)N[C@@H](CC(=O)O)C(=O)N[C@@H](CCCCN)C(=O)N[C@H](C(=O)N[C@@H](Cc1c[nH]cn1)C(=O)N[C@@H](CCC(N)=O)C(=O)N[C@@H](CCC(N)=O)C(=O)N[C@@H](CC(=O)O)C(=O)N[C@@H](Cc1ccccc1)C(=O)N[C@H](C(=O)N[C@@H](CC(N)=O)C(=O)N[C@@H](Cc1c[nH]c2ccccc12)C(=O)N[C@@H](CC(C)C)C(=O)N[C@@H](CC(C)C)C(=O)N[C@@H](C)C(=O)N[C@@H](CCC(N)=O)C(=O)N[C@@H](CCCCN)C(N)=O)C(C)C)[C@@H](C)CC [Example 12] | 9.92 | 104% | 
CC[C@H](C)[C@H](NC(=O)[C@H](CO)NC(=O)[C@H](Cc1ccc(O)cc1)NC(=O)[C@H](CC(=O)O)NC(=O)[C@H](CO)NC(=O)[C@@H](NC(=O)[C@H](Cc1ccccc1)NC(=O)[C@@H](NC(=O)CNC(=O)[C@H](CCC(=O)O)NC(=O)[C@H](C)NC(=O)[C@@H](Cc1cccc(Cl)c1)NC(C)=O)[C@@H](C)O)[C@@H](C)CC)C(=O)N[C@@H](C)C(=O)N[C@@H](CCSC)C(=O)N[C@@H](CC(=O)O)C(=O)N[C@@H](CCCCN)C(=O)N[C@H](C(=O)N[C@@H](Cc1c[nH]cn1)C(=O)N[C@@H](CCC(N)=O)C(=O)N[C@@H](CCC(N)=O)C(=O)N[C@@H](CC(=O)O)C(=O)N[C@@H](Cc1ccccc1)C(=O)N[C@H](C(=O)N[C@@H](CC(N)=O)C(=O)N[C@@H](Cc1c[nH]c2ccccc12)C(=O)N[C@@H](CC(C)C)C(=O)N[C@@H](CC(C)C)C(=O)N[C@@H](C)C(=O)N[C@@H](CCC(N)=O)C(=O)N[C@@H](CCCCN)C(N)=O)C(C)C)[C@@H](C)CC [Example 13] | 10.14 | 106% | 
